In patent publication US10780090B2, “Heteroaryl compounds useful as inhibitors of SUMO activating enzyme” (Millennium Pharmaceuticals, Inc., priority 2014, dated 2020):

Target: recombinant human SAE enzyme (Homo sapiens (Human), UniProt Q9UBT2)
Experiment: SAE HTRF enzyme assay
Format: biochemical
Details: for Percent Inhibition: Concentration 0.111 μM; for IC50: class symbols A/B/C
Summary of the method: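 First, recombinant human SAE (0.11 nM) transfers Sumo-Flag onto Ubc9-GST using 0.5 μM ATP for 105 min at 24° C. Next, EDTA-containing detection buffer with labelled anti-Flag and anti-GST antibodies is added for 2 h. Finally, FRET is quantified and percent inhibition or IC50 derived.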

recombinant human SAE enzyme, sequence (Q9UBT2 whole entry): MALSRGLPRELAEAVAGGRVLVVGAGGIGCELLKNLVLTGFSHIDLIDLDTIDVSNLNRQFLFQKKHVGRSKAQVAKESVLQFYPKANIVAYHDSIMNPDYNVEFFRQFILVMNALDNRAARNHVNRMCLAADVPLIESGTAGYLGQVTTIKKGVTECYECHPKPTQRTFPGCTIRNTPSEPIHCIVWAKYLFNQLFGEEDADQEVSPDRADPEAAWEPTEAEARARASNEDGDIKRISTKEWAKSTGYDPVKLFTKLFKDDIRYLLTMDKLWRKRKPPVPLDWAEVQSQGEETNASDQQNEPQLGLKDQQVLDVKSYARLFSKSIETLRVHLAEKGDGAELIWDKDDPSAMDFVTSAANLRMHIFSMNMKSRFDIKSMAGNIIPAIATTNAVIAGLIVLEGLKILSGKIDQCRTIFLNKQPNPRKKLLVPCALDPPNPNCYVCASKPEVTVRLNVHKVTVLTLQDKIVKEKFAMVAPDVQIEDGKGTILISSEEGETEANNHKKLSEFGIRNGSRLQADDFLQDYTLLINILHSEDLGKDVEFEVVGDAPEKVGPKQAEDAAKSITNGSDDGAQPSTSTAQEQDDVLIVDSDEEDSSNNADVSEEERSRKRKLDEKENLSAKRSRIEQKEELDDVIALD
recombinant human SAE enzyme, sequence (Q9UBE0 whole entry partner): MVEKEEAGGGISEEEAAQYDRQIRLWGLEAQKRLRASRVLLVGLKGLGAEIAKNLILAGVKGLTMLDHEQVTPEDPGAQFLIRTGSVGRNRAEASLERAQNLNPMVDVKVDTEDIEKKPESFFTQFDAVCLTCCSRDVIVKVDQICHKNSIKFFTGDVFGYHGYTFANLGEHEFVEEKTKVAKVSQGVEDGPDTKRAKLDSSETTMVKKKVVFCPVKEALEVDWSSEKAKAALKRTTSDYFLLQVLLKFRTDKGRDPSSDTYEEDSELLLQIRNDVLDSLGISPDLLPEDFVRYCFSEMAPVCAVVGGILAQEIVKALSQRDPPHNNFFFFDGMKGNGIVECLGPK

In the case of `C[C@](N)(c1cccc(Cl)c1)c1csc(C(=O)c2cncnc2N[C@@H]2C[C@H](COS(N)(=O)=O)[C@@H](O)C2)c1` (single isomer, unassigned) [I-12b, [(1R,2S,4R)-4-{[5-({4-[(1S)-1-amino-1-(3-chlorophenyl)ethyl]-2-thienyl}carbonyl)pyrimidin-4-yl]amino}-2-hydroxycyclopentyl]methyl sulfamate or [(1R,2S,4R)-4-{[5-({4-[(1R)-1-amino-1-(3-chlorophenyl)ethyl]-2-thienyl}carbonyl)pyrimidin-4-yl]amino}-2-hydroxycyclopentyl]methyl sulfamate], the “Percent Inhibition” value is reported as 100 and the IC50 is reported as less than 10 nM.
In the case of `N[C@@H](c1cccc(Cl)c1)c1cc(C(=O)c2cncnc2N[C@@H]2C[C@H](COS(N)(=O)=O)[C@@H](O)[C@H]2O)sc1Cl` (single isomer, unassigned) [I-14a, [(1R,2R,3S,4R)-4-{[5-({4-[(S)-Amino(3-chlorophenyl)methyl]-5-chloro-2-thienyl)carbonyl)pyrimidin-4-yl]amino}-2,3-dihydroxycyclopentyl]methyl sulfamate or [(1R,2R,3S,4R)-4-{[5-({4-[(R)-Amino(3-chlorophenyl)methyl]-5-chloro-2-thienyl}carbonyl)pyrimidin-4-yl]amino}-2,3-dihydroxycyclopentyl]methyl sulfamate], the “Percent Inhibition” value is reported as 101 and the IC50 is reported as less than 10 nM.
`N[C@@H](c1cccc(Cl)c1)c1cc(C(=O)c2cncnc2N[C@@H]2C[C@H](COS(N)(=O)=O)[C@@H](O)[C@H]2O)sc1Cl` (single isomer, unassigned) [I-14b, [(1R,2R,3S,4R)-4-{[5-({4-[(S)-Amino(3-chlorophenyl)methyl]-5-chloro-2-thienyl)carbonyl)pyrimidin-4-yl]amino}-2,3-dihydroxycyclopentyl]methyl sulfamate or [(1R,2R,3S,4R)-4-{[5-({4-[(R)-Amino(3-chlorophenyl)methyl]-5-chloro-2-thienyl}carbonyl)pyrimidin-4-yl]amino}-2,3-dihydroxycyclopentyl]methyl sulfamate] was tested, and the “Percent Inhibition” value was 95 and the IC50 was less than 10 nM.
`N[C@H](c1cccc(Cl)c1)c1cc(C(=O)c2cncnc2N[C@@H]2C[C@H](COS(N)(=O)=O)[C@@H](O)C2)sc1Cl` (single isomer, unassigned) [I-15a, [(1R,2S,4R)-4-{[5-({4-[(R)-amino(3-chlorophenyl)methyl]-5-chloro-2-thienyl}carbonyl)pyrimidin-4-yl]amino}-2-hydroxycyclopentyl]methyl sulfamate or [(1R,2S,4R)-4-{[5-({4-[(S)-amino(3-chlorophenyl)methyl]-5-chloro-2-thienyl}carbonyl)pyrimidin-4-yl]amino}-2-hydroxycyclopentyl]methyl sulfamate] was tested, and the “Percent Inhibition” value was 66 and the IC50 was 10 to 100 nM.
With `N[C@H](c1cccc(Cl)c1)c1cc(C(=O)c2cncnc2N[C@@H]2C[C@H](COS(N)(=O)=O)[C@@H](O)C2)sc1Cl` (single isomer, unassigned) [I-15b, [(1R,2S,4R)-4-{[5-({4-[(R)-amino(3-chlorophenyl)methyl]-5-chloro-2-thienyl}carbonyl)pyrimidin-4-yl]amino}-2-hydroxycyclopentyl]methyl sulfamate or [(1R,2S,4R)-4-{[5-({4-[(S)-amino(3-chlorophenyl)methyl]-5-chloro-2-thienyl}carbonyl)pyrimidin-4-yl]amino}-2-hydroxycyclopentyl]methyl sulfamate] the “Percent Inhibition” value was 100 and the IC50 was less than 10 nM.
For `NS(=O)(=O)OC[C@H]1C[C@@H](Nc2ncncc2C(=O)c2cc([C@@H](O)c3cccc(Br)c3)c(Cl)s2)C[C@@H]1O` (single isomer, unassigned) [I-16a, [(1R,2S,4R)-4-{[5-({4-[(S)-(3-Bromophenyl)(hydroxy)methyl-5-chloro-2-thienyl}carbonyl)pyrimidin-4-yl]amino}-2-hydroxycyclopentyl]methyl sulfamate or [(1R,2S,4R)-4-{[5-({4-[(R)-(3-Bromophenyl)(hydroxy)methyl]-5-chloro-2-thienyl}carbonyl)pyrimidin-4-yl]amino}-2-hydroxycyclopentyl]methyl sulfamate], the “Percent Inhibition” value was 99 and the IC50 was less than 10 nM.
In the case of `NS(=O)(=O)OC[C@H]1C[C@@H](Nc2ncncc2C(=O)c2cc([C@@H](O)c3cccc(Br)c3)c(Cl)s2)C[C@@H]1O` (single isomer, unassigned) [I-16b, 1R,2S,4R)-4-{[5-({4-[(S)-(3-Bromophenyl)(hydroxy)methyl]-5-chloro-2-thienyl}carbonyl)pyrimidin-4-yl]amino}-2-hydroxycyclopentyl]methyl sulfamate or [(1R,2S,4R)-4-{[5-({4-[(R)-(3-Bromophenyl)(hydroxy)methyl]-5-chloro-2-thienyl}carbonyl)pyrimidin-4-yl]amino}-2-hydroxycyclopentyl]methyl sulfamate], the “Percent Inhibition” value is reported as 98 and the IC50 is reported as less than 10 nM.
In the case of `N[C@@H](c1cccc(Br)n1)c1cc(C(=O)c2cncnc2N[C@@H]2C[C@H](COS(N)(=O)=O)[C@@H](O)C2)sc1Cl` (single isomer, unassigned) [I-18a, [(1R,2S,4R)-4-{[5-({4-[(R)-amino(6-bromopyridin-2-yl)methyl]-5-chloro-2-thienyl}carbonyl)pyrimidin-4-yl]amino}-2-hydroxycyclopentyl]methyl sulfamate or [(1R,2S,4R)-4-{[5-({4-[(S)-amino(6-bromopyridin-2-yl)methyl]-5-chloro-2-thienyl}carbonyl)pyrimidin-4-yl]amino}-2-hydroxycyclopentyl]methyl sulfamate], the “Percent Inhibition” value is reported as 82 and the IC50 is reported as 10 to 100 nM.
With `N[C@@H](c1cccc(Br)n1)c1cc(C(=O)c2cncnc2N[C@@H]2C[C@H](COS(N)(=O)=O)[C@@H](O)C2)sc1Cl` (single isomer, unassigned) [I-18b, [(1R,2S,4R)-4-{[5-({4-[(R)-amino(6-bromopyridin-2-yl)methyl]-5-chloro-2-thienyl}carbonyl)pyrimidin-4-yl]amino}-2-hydroxycyclopentyl]methyl sulfamate or [(1R,2S,4R)-4-{[5-({4-[(S)-amino(6-bromopyridin-2-yl)methyl]-5-chloro-2-thienyl}carbonyl)pyrimidin-4-yl]amino}-2-hydroxycyclopentyl]methyl sulfamate] the “Percent Inhibition” value was 99 and the IC50 was less than 10 nM.
With `NS(=O)(=O)OC[C@H]1C[C@@H](Nc2ncncc2C(=O)c2cc([C@H](O)c3cc(Br)ccc3F)cs2)C[C@@H]1O` (single isomer, unassigned) [I-19a, [(1R,2S,4R)-4-{[5-({4-[(R)-(5-bromo-2-fluorophenyl)(hydroxy)methyl]-2-thienyl}carbonyl)pyrimidin-4-yl]amino}-2-hydroxycyclopentyl]methyl sulfamate or [(1R,2S,4R)-4-{[5-({4-[(S)-(5-bromo-2-fluorophenyl)(hydroxy)methyl]-2-thienyl}carbonyl)pyrimidin-4-yl]amino}-2-hydroxycyclopentyl]methyl sulfamate] the “Percent Inhibition” value was 98 and the IC50 was less than 10 nM.
